One assay addresses T1, hGCGR (Homo sapiens, UniProt P47871).
T1 construct: expressed in transfected cells
Kind of assay: Functional cAMP formation (HTRF) in HEK-293 clonal cells expressing hGCGR, 0.1% bovine casein, without or with 1.0% human serum albumin. The conditions noted are these: geometric mean. The format is cell-based. The method, boiled down:
(§1)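 Cells were stimulated with peptide for 30 min at 37° C, then intracellular cAMP was measured by competitive HTRF (665/620 nm ratio) and converted to nM using a cAMP standard curve. Relative EC50 and Emax came from four-parameter logistic fits of percent maximal response against peptide concentration.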
In general terms: cAMP levels reflect the balance of adenylyl cyclase and phosphodiesterase activity.

The target of another assay is T2, hGIPR (Homo sapiens, UniProt P48546).
T2 construct: expressed in transfected cells
T2 sequence (P48546 22-466): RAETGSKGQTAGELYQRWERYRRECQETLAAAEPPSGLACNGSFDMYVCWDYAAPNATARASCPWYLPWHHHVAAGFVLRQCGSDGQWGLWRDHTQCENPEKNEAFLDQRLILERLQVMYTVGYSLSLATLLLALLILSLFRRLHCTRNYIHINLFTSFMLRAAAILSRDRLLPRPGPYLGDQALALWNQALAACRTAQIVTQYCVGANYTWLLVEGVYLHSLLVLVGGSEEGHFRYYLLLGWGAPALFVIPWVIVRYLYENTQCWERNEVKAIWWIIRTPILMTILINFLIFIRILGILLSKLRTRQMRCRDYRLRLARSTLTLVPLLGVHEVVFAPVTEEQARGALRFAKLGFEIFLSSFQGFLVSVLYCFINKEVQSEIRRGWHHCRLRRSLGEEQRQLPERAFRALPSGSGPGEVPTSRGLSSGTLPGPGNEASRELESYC
Kind of assay: Functional cAMP formation (HTRF) in HEK-293 clonal cells expressing hGIPR, 0.1% bovine casein, without or with 1.0% human serum albumin. The format is cell-based. Conditions: for EC50: cAMP, 0.1% bovine casein (no human serum albumin), geometric mean. The method in brief:
as §1

[1] abbreviates: cAMP, incubated at 37° C., 0.1% bovine casein (no human serum albumin), read-out: hGCGR EC50, nM (SEM, n).
The mark [2] stands for this setting: incubated at 37° C., read-out: hGIPR EC50, nM (SEM, n).
The mark [3] stands for this setting: HEK293, percent of maximal response to GIP(1-42)NH2, 37° C., 0.1% bovine casein, arithmetic mean, read-out: hGIPR Emax, % ± SEM.

Like-named read-outs stand apart in the source and are kept apart here.

T1 sequence (P47871 26-477): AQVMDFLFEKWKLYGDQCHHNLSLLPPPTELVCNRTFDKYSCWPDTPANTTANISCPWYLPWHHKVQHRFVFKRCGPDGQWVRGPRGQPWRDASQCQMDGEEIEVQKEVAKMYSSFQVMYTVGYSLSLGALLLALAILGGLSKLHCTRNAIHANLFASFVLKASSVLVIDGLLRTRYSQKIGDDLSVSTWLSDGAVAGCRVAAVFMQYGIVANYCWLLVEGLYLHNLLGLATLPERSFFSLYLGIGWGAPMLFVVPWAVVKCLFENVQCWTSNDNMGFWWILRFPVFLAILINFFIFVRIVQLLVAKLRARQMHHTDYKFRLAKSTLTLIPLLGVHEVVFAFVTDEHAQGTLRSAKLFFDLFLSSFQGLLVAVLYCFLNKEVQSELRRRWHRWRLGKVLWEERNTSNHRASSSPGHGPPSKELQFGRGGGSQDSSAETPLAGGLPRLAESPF

By EC50 is commonly meant the concentration giving half of the maximal effect. The term Emax denotes the greatest response seen or fitted, relative to the assay's reference. In the case of `CC[C@H](C)[C@H](NC(=O)[C@H](CC(C)C)NC(=O)[C@](C)(Cc1ccc(O)cc1)NC(=O)[C@@H](CCC(=O)O)NC(=O)[C@@H](NC(=O)[C@H](Cc1ccccc1)NC(=O)[C@H](CCCCNC(=O)COCCOCCNC(=O)COCCOCCNC(=O)CCCCCCCCCCCCC(=O)O)NC(=O)C(C)(C)NC(=O)[C@H](CCC(N)=O)NC(=O)[C@H](C)NC(=O)[C@H](CCCCNC(=O)COCCOCCNC(=O)COCCOCCNC(=O)CCCCCCCCCCCCC(=O)O)NC(=O)[C@H](CCCN)NC(=O)[C@H](CC(=O)O)NC(=O)[C@H](CC(C)C)NC(=O)[C@](C)(CC(C)C)NC(=O)[C@@H](NC(=O)[C@H](CO)NC(=O)[C@H](Cc1ccc2ccccc2c1)NC(=O)[C@H](CC(=O)O)NC(=O)[C@H](CO)NC(=O)[C@@H](NC(=O)[C@](C)(Cc1ccccc1F)NC(=O)[C@@H](NC(=O)CNC(=O)[C@H](CCC(=O)O)NC(=O)C(C)(C)NC(=O)[C@@H](N)Cc1ccc(O)cc1)[C@@H](C)O)[C@@H](C)O)[C@@H](C)CC)[C@@H](C)CC)C(=O)N[C@@H](CCC(=O)O)C(=O)NCC(=O)NCC(=O)N1CCC[C@H]1C(=O)N[C@@H](CO)C(=O)N[C@@H](CO)C(=O)NCC(=O)N[C@@H](C)C(=O)N1CCC[C@H]1C(=O)N1CCC[C@H]1C(=O)N1CCC[C@H]1C(=O)N[C@@H](CO)C(N)=O` [Example 255], the EC50 on hGCGR (0.1% bovine casein and 1.0% human serum albumin, 37° C., read-out: hGCGR EC50, nM (SEM, n)) is over 9950 nM; on hGCGR (cAMP, 37° C., 0.1% bovine casein (no human serum albumin), read-out: hGCGR EC50, nM (SEM, n)), over 9950 nM; at hGIPR (37° C., read-out: hGIPR EC50, nM (SEM, n)), 0.0213 nM. For the same compound, on hGIPR (HEK293, 0.1% bovine casein and 1.0% human serum albumin, 37° C., percent of maximal response to GIP(1-42)NH2, read-out: hGIPR Emax, % ± SEM), the Emax is 93.4%.
For the compound `CC[C@H](C)[C@H](NC(=O)[C@H](CC(C)C)NC(=O)[C@](C)(Cc1ccc(O)cc1)NC(=O)[C@@H](CCC(=O)O)NC(=O)[C@@H](NC(=O)[C@H](Cc1ccccc1)NC(=O)[C@H](CCC(=O)O)NC(=O)C(C)(C)NC(=O)[C@H](CCC(N)=O)NC(=O)[C@H](C)NC(=O)[C@H](CCCCNC(=O)COCCOCCNC(=O)COCCOCCNC(=O)CC[C@H](NC(=O)CCCc1ccc(C(C)(C)C)cc1)C(=O)O)NC(=O)[C@H](CCCN)NC(=O)[C@H](CC(=O)O)NC(=O)[C@H](CC(C)C)NC(=O)[C@](C)(CC(C)C)NC(=O)[C@@H](NC(=O)[C@H](CO)NC(=O)[C@H](Cc1ccncc1)NC(=O)[C@H](CC(=O)O)NC(=O)[C@H](CO)NC(=O)[C@@H](NC(=O)[C@](C)(Cc1ccccc1F)NC(=O)[C@@H](NC(=O)CNC(=O)[C@H](CCC(=O)O)NC(=O)C(C)(C)NC(=O)[C@@H](N)Cc1ccc(O)cc1)[C@@H](C)O)[C@@H](C)O)[C@@H](C)CC)[C@@H](C)CC)C(=O)N[C@@H](CCC(=O)O)C(=O)NCC(=O)N[C@@H](CCCCNC(=O)COCCOCCNC(=O)COCCOCCNC(=O)CC[C@H](NC(=O)CCCc1ccc(C(C)(C)C)cc1)C(=O)O)C(=O)N1CCC[C@H]1C(=O)N[C@@H](CO)C(=O)N[C@@H](CO)C(=O)NCC(=O)N[C@@H](C)C(=O)N1CCC[C@H]1C(=O)N1CCC[C@H]1C(=O)N1CCC[C@H]1C(=O)N[C@@H](CO)C(N)=O` [Example 134], the EC50 is over 9950 nM at hGCGR (setting [1]) and 0.0238 nM at hGIPR (setting [2]).
Regarding `CC[C@H](C)[C@H](NC(=O)[C@H](CC(C)C)NC(=O)[C@](C)(Cc1ccc(O)cc1)NC(=O)[C@@H](CCC(=O)O)NC(=O)[C@@H](NC(=O)[C@H](Cc1ccccc1)NC(=O)[C@H](CCC(=O)O)NC(=O)C(C)(C)NC(=O)[C@H](CCC(N)=O)NC(=O)[C@H](C)NC(=O)[C@H](CCCCNC(=O)COCCOCCNC(=O)COCCOCCNC(=O)CC[C@H](NC(=O)CCCCCCCCCCCCC(=O)O)C(=O)O)NC(=O)[C@H](CCCN)NC(=O)[C@H](CC(=O)O)NC(=O)[C@H](CC(C)C)NC(=O)[C@](C)(CC(C)C)NC(=O)[C@@H](NC(=O)[C@H](CO)NC(=O)[C@H](Cc1ccncc1)NC(=O)[C@H](CC(=O)O)NC(=O)[C@H](CO)NC(=O)[C@@H](NC(=O)[C@](C)(Cc1ccccc1F)NC(=O)[C@@H](NC(=O)CNC(=O)[C@H](CCC(=O)O)NC(=O)C(C)(C)NC(=O)[C@@H](N)Cc1ccc(O)cc1)[C@@H](C)O)[C@@H](C)O)[C@@H](C)CC)[C@@H](C)CC)C(=O)N[C@@H](CCC(=O)O)C(=O)NCC(=O)N[C@@H](CCCN)C(=O)N[C@@H](CCCCNC(=O)COCCOCCNC(=O)COCCOCCNC(=O)CC[C@H](NC(=O)CCCCCCCCCCCCC(=O)O)C(=O)O)C(=O)N[C@@H](CO)C(=O)N[C@@H](CO)C(=O)NCC(=O)N[C@@H](C)C(=O)N1CCC[C@H]1C(=O)N1CCC[C@H]1C(=O)N1CCC[C@H]1C(=O)N[C@@H](CO)C(N)=O` [Example 152], the EC50 on hGCGR (setting [1]) was over 9950 nM. Besides, the Emax at hGIPR (setting [3]) was 97.9 ± 3.25%.
Turning to `CC[C@H](C)[C@H](NC(=O)[C@H](CC(C)C)NC(=O)[C@](C)(Cc1ccc(O)cc1)NC(=O)[C@@H](CCC(=O)O)NC(=O)[C@@H](NC(=O)[C@H](Cc1ccccc1)NC(=O)[C@H](CCC(=O)O)NC(=O)C(C)(C)NC(=O)[C@H](CCC(N)=O)NC(=O)[C@H](C)NC(=O)[C@H](CCCCNC(=O)COCCOCCNC(=O)COCCOCCNC(=O)CC[C@H](NC(=O)CCCCCCCCCCCCC(=O)O)C(=O)O)NC(=O)[C@H](CCCN)NC(=O)[C@H](CC(=O)O)NC(=O)[C@H](CC(C)C)NC(=O)[C@](C)(CC(C)C)NC(=O)[C@@H](NC(=O)[C@H](CO)NC(=O)[C@H](Cc1ccco1)NC(=O)[C@H](CC(=O)O)NC(=O)[C@H](CO)NC(=O)[C@@H](NC(=O)[C@](C)(Cc1ccccc1F)NC(=O)[C@@H](NC(=O)CNC(=O)[C@H](CCC(=O)O)NC(=O)C(C)(C)NC(=O)[C@@H](N)Cc1ccc(O)cc1)[C@@H](C)O)[C@@H](C)O)[C@@H](C)CC)[C@@H](C)CC)C(=O)N[C@@H](CCC(=O)O)C(=O)NCC(=O)NCC(=O)N[C@@H](CCCCNC(=O)COCCOCCNC(=O)COCCOCCNC(=O)CC[C@H](NC(=O)CCCCCCCCCCCCC(=O)O)C(=O)O)C(=O)N[C@@H](CO)C(=O)N[C@@H](CO)C(=O)NCC(=O)N[C@@H](C)C(=O)N1CCC[C@H]1C(=O)N1CCC[C@H]1C(=O)N1CCC[C@H]1C(=O)N[C@@H](CO)C(N)=O` [Example 143], the EC50 at hGCGR (setting [1]) is over 9950 nM; on hGIPR (setting [2]) it was 0.022 nM. In addition, the Emax on hGIPR (setting [3]) was found to be 95%.
As for `CC[C@H](C)[C@H](NC(=O)[C@H](CCCN)NC(=O)[C@H](CC(=O)O)NC(=O)[C@H](CC(C)C)NC(=O)[C@](C)(CC(C)C)NC(=O)[C@@H](NC(=O)[C@H](CO)NC(=O)[C@H](Cc1ccncc1)NC(=O)[C@H](CC(=O)O)NC(=O)[C@H](CO)NC(=O)[C@@H](NC(=O)[C@](C)(Cc1ccccc1F)NC(=O)[C@@H](NC(=O)CNC(=O)[C@H](CCC(=O)O)NC(=O)C(C)(C)NC(=O)[C@@H](N)Cc1ccc(O)cc1)[C@@H](C)O)[C@@H](C)O)[C@@H](C)CC)C(=O)N[C@@H](C)C(=O)N[C@@H](CCC(N)=O)C(=O)NC(C)(C)C(=O)N[C@@H](CCCCNC(=O)COCCOCCNC(=O)COCCOCCNC(=O)CC[C@H](NC(=O)CCCCCCCCCOc1ccc(C(=O)O)cc1)C(=O)O)C(=O)N[C@@H](Cc1ccccc1)C(=O)N[C@H](C(=O)N[C@H](CCC(=O)O)C(=O)N[C@@](C)(Cc1ccc(O)cc1)C(=O)N[C@@H](CC(C)C)C(=O)N[C@H](C(=O)N[C@@H](CCC(=O)O)C(=O)NCC(=O)NCC(=O)N1CCC[C@H]1C(=O)N[C@@H](CO)C(=O)N[C@@H](CO)C(=O)NCC(=O)N[C@@H](C)C(=O)N1CCC[C@H]1C(=O)N1CCC[C@H]1C(=O)N1CCC[C@H]1C(=O)N[C@@H](CO)C(=O)N[C@@H](CCCCNC(=O)COCCOCCNC(=O)COCCOCCNC(=O)CC[C@H](NC(=O)CCCCCCCCCOc1ccc(C(=O)O)cc1)C(=O)O)C(N)=O)[C@@H](C)CC)[C@@H](C)CC` [Example 276], the EC50 at hGCGR (hGCGR EC50, nM (SEM, n), 0.1% bovine casein and 1.0% human serum albumin, 37° C.) is over 9950 nM; at hGCGR (hGCGR EC50, nM (SEM, n), cAMP, 37° C., 0.1% bovine casein (no human serum albumin)), over 9950 nM; on hGIPR (hGIPR EC50, nM (SEM, n), 37° C.), 0.0134 nM. The Emax at hGIPR (HEK293, read-out: hGIPR Emax, % ± SEM, 0.1% bovine casein and 1.0% human serum albumin, 37° C., percent of maximal response to GIP(1-42)NH2) came to 91.4%.

Source of the values: patent US20230265151A1, “GIP/GLP1 CO-AGONIST COMPOUNDS” (priority 2020, published 2023).
